Results reported in patent US9328099B2, “Cyanomethylpyrazole carboxamides as janus kinase inhibitors” (Merck Sharp & Dohme Corp., priority 2011, dated 2016).

Key:
JAK1 = JAK1 (Homo sapiens (Human), UniProt P23458); assay: Jak Biochemical HTRF Assay, JAK1; details: HTRF biochemical assay, GST-tagged catalytic domain; top concentration tested […]; read-out: JAK1 IC50
Text: (§1) Jak Biochemical HTRF Assay Protocol
(§2) Subsequent reagent additions employed an Agilent Bravo.

JAK2 = JAK2 (Homo sapiens (Human), UniProt O60674); assay: Jak Biochemical HTRF Assay, JAK2; details: HTRF biochemical assay, GST-tagged catalytic domain; top concentration tested […]
Text: as §1, §2

Chain of JAK1 (P23458 875-1153): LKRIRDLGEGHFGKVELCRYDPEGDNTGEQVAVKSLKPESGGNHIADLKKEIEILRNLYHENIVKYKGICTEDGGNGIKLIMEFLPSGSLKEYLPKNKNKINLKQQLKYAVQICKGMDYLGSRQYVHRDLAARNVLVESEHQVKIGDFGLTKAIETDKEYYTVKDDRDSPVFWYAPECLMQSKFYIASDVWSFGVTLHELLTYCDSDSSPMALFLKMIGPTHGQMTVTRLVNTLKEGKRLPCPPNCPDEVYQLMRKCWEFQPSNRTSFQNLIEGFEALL
Chain of JAK2 (O60674 849-1124): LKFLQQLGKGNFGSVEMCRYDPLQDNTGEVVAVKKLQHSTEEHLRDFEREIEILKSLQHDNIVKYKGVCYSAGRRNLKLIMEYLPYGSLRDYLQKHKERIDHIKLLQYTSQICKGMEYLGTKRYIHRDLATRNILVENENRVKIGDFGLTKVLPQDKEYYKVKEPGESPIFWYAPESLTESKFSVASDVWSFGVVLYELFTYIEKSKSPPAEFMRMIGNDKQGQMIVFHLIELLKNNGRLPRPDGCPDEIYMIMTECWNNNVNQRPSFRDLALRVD

| Structure (SMILES) | IC50 (JAK1) | IC50 (JAK2) |
| --- | --- | --- |
| CC(C)(C)OC(=O)N1CCC(CC#N)(n2cc(C(N)=O)c(Nc3cccc(-c4ccc(F)cc4)c3)n2)CC1 [Example 15-2, tert-butyl 4-{4-carbamoyl-3-[(4′-fluorobiphenyl-3-yl)amino]-1H-pyrazol-1-yl}-4-(cyanomethyl)piperidine-1-carboxylate] | 51 nM | 1100 nM |
| CC(C)(C)OC(=O)N1CCC(CC#N)(n2cc(C(N)=O)c(Nc3cccc(-c4ccccc4)c3)n2)CC1 [Example 15-3, tert-butyl 4-[3-(biphenyl-3-ylamino)-4-carbamoyl-1H-pyrazol-1-yl]-4-(cyanomethyl)piperidine-1-carboxylate] | 341 nM | 1050 nM |
| COc1ccc(-c2cccc(Nc3nn(C4(CC#N)CCN(C(=O)OC(C)(C)C)CC4)cc3C(N)=O)c2)cc1 [Example 15-4, tert-butyl 4-{4-carbamoyl-3-[(4′-methoxybiphenyl-3-yl)amino]-1H-pyrazol-1-yl}-4-(cyanomethyl)piperidine-1-carboxylate] | 41 nM | 958 nM |
| CC(C)(C)OC(=O)N1CCC(CC#N)(n2cc(C(N)=O)c(Nc3cccc(-c4ccc(O)cc4)c3)n2)CC1 [Example 15-5, tert-butyl 4-{4-carbamoyl-3-[(4′-hydroxybiphenyl-3-yl)amino]-1H-pyrazol-1-yl}-4-(cyanomethyl)piperidine-1-carboxylate] | 14 nM | 293 nM |
| Cc1ccccc1-c1cccc(Nc2nn(C3(CC#N)CCN(C(=O)OC(C)(C)C)CC3)cc2C(N)=O)c1 [Example 15-7, tert-butyl 4-{4-carbamoyl-3-[(2′-methylbiphenyl-3-yl)amino]-1H-pyrazol-1-yl}-4-(cyanomethyl)piperidine-1-carboxylate] | 127 nM | 1480 nM |
| CC(C)(C)OC(=O)N1CCC(CC#N)(n2cc(C(N)=O)c(Nc3cccc(-c4cccc(Cl)c4)c3)n2)CC1 [Example 15-8, tert-butyl 4-{4-carbamoyl-3-[(3′-chlorobiphenyl-3-yl)amino]-1H-pyrazol-1-yl}-4-(cyanomethyl)piperidine-1-carboxylate] | 161 nM | 1480 nM |
| CC(C)(C)OC(=O)N1CCC(CC#N)(n2cc(C(N)=O)c(Nc3cccc(-c4ccc5ccccc5c4)c3)n2)CC1 [Example 15-9, tert-butyl 4-{4-carbamoyl-3-[(3-naphthalen-2-ylphenyl)amino]-1H-pyrazol-1-yl}-4-(cyanomethyl)piperidine-1-carboxylate] | 644 nM | 1480 nM |
| CC(C)(C)OC(=O)N1CCC(CC#N)(n2cc(C(N)=O)c(Nc3ccc(CC(=O)O)cc3)n2)CC1 [Example 18, [4-({1-[1-(tert-Butoxycarbonyl)-4-(cyanomethyl)piperidin-4-yl]-4-carbamoyl-1H-pyrazol-3-yl}amino)phenyl]acetic acid] | 0.1 nM | 10 nM |
| CN1CC(CC#N)(n2cc(C(N)=O)c(Nc3ccccc3)n2)C1 [Example 20, 1-[3-(Cyanomethyl)-1-methylazetidin-3-yl]-3-(phenylamino)-1H-pyrazole-4-carboxamide] | 358 nM | 1480 nM |
| N#CCC1(n2cc(C(N)=O)c(Nc3ccccc3)n2)CCN(Cc2cccnc2)CC1 [Example 21-2, 1-[4-(cyanomethyl)-1-(pyridin-3-ylmethyl)piperidin-4-yl]-3-(phenylamino)-1H-pyrazole-4-carboxamide] | 3 nM | 11 nM |
| N#CCC1(n2cc(C(N)=O)c(Nc3ccccc3)n2)CCN(Cc2ccc(C#N)cc2)CC1 [Example 21-4, 1-[1-(4-cyanobenzyl)-4-(cyanomethyl)piperidin-4-yl]-3-(phenylamino)-1H-pyrazole-4-carboxamide] | 29 nM | 243 nM |
| N#CCCCN1CCC(CC#N)(n2cc(C(N)=O)c(Nc3ccccc3)n2)CC1 [Example 21-5, 1-[4-(cyanomethyl)-1-(3-cyanopropyl)piperidin-4-yl]-3-(phenylamino)-1H-pyrazole-4-carboxamide] | 46 nM | 314 nM |
| N#CCC1(n2cc(C(N)=O)c(Nc3ccccc3)n2)CCN(Cc2ccccc2Cl)CC1 [Example 21-6, 1-[1-(2-chlorobenzyl)-4-(cyanomethyl)piperidin-4-yl]-3-(phenylamino)-1H-pyrazole-4-carboxamide] | 3 nM | 55 nM |
| N#CCC1(n2cc(C(N)=O)c(Nc3ccccc3)n2)CCN(Cc2cccc(O)c2)CC1 [Example 21-11, 1-[4-(cyanomethyl)-1-(3-hydroxybenzyl)piperidin-4-yl]-3-(phenylamino)-1H-pyrazole-4-carboxamide] | 0.3 nM | 6 nM |
| CC(=O)Nc1ccc(CN2CCC(CC#N)(n3cc(C(N)=O)c(Nc4ccccc4)n3)CC2)cc1 [Example 21-12, 1-{1-[4-(acetylamino)benzyl]-4-(cyanomethyl)piperidin-4-yl}-3-(phenylamino)-1H-pyrazole-4-carboxamide] | 7 nM | 128 nM |
| CSCCCN1CCC(CC#N)(n2cc(C(N)=O)c(Nc3ccccc3)n2)CC1 [Example 21-15, 1-{4-(cyanomethyl)-1-[3-(methylsulfanyl)propyl]piperidin-4-yl}-3-(phenylamino)-1H-pyrazole-4-carboxamide] | 12 nM | 242 nM |
| N#CCC1(n2cc(C(N)=O)c(Nc3ccccc3)n2)CCN(C/C=C/c2ccccc2)CC1 [Example 21-17, 1-{4-(cyanomethyl)-1-[(2E)-3-phenylprop-2-en-1-yl]piperidin-4-yl}-3-(phenylamino)-1H-pyrazole-4-carboxamide] | 19 nM | 208 nM |
| N#CCC1(n2cc(C(N)=O)c(Nc3ccccc3)n2)CCN(Cc2cccc(F)c2)CC1 [Example 21-18, 1-[4-(cyanomethyl)-1-(3-fluorobenzyl)piperidin-4-yl]-3-(phenylamino)-1H-pyrazole-4-carboxamide] | 2 nM | 73 nM |

Continued, values first:

| IC50 (JAK1) | IC50 (JAK2) | Structure (SMILES) |
| --- | --- | --- |
| 148 nM | 1480 nM | CC(C)(C)OC(=O)N1CCC(CC#N)(n2cc(C(N)=O)c(Nc3cccc(-c4ccc(Cl)cc4)c3)n2)CC1 [Example 15-1, tert-Butyl 4-{4-carbamoyl-3-[(4′-chlorobiphenyl-3-yl)amino]-1H-pyrazol-1-yl}-4-(cyanomethyl)piperidine-1-carboxylate] |
| 85 nM | 1480 nM | Cc1ccc(-c2cccc(Nc3nn(C4(CC#N)CCN(C(=O)OC(C)(C)C)CC4)cc3C(N)=O)c2)cc1 [Example 15-6, tert-butyl 4-{4-carbamoyl-3-[(4′-methylbiphenyl-3-yl)amino]-1H-pyrazol-1-yl}-4-(cyanomethyl)piperidine-1-carboxylate] |
| 31 nM | 841 nM | CC(C)(C)OC(=O)N1CCC(CC#N)(n2cc(C(N)=O)c(Nc3cccc(-c4ccccc4F)c3)n2)CC1 [Example 15-10, tert-butyl 4-{4-carbamoyl-3-[(2′-fluorobiphenyl-3-yl)amino]-1H-pyrazol-1-yl}-4-(cyanomethyl)piperidine-1-carboxylate] |
| 13 nM | 182 nM | CC(C)(C)OC(=O)N1CCC(CC#N)(n2cc(C(N)=O)c(Nc3cccc(-c4ccccc4O)c3)n2)CC1 [Example 15-11, tert-butyl 4-{4-carbamoyl-3-[(2′-hydroxybiphenyl-3-yl)amino]-1H-pyrazol-1-yl}-4-(cyanomethyl)piperidine-1-carboxylate] |
| 162 nM | 870 nM | N#CCC1(n2cc(C(N)=O)c(Nc3ccccc3)n2)CN(CC(F)(F)F)C1 [Example 19, 1-[3-(Cyanomethyl)-1-(2,2,2-trifluoroethyl)azetidin-3-yl]-3-(phenylamino)-1H-pyrazole-4-carboxamide] |
| 6 nM | 46 nM | N#CCC1(n2cc(C(N)=O)c(Nc3ccccc3)n2)CCN(Cc2ccc(-c3ccccc3)cc2)CC1 [Example 21-1, 1-[1-(Biphenyl-4-ylmethyl)-4-(cyanomethyl)piperidin-4-yl]-3-(phenylamino)-1H-pyrazole-4-carboxamide] |
| 11 nM | 135 nM | Cc1ccc(CN2CCC(CC#N)(n3cc(C(N)=O)c(Nc4ccccc4)n3)CC2)cc1 [Example 21-7, 1-[4-(cyanomethyl)-1-(4-methylbenzyl)piperidin-4-yl]-3-(phenylamino)-1H-pyrazole-4-carboxamide] |
| 89 nM | 1300 nM | N#CCC1(n2cc(C(N)=O)c(Nc3ccccc3)n2)CCN(Cc2cccc3ccccc23)CC1 [Example 21-8, 1-[4-(cyanomethyl)-1-(naphthalene-1-ylmethyl)piperidin-4-yl]-3-(phenylamino)-1H-pyrazole-4-carboxamide] |
| 15 nM | 319 nM | N#CCC1(n2cc(C(N)=O)c(Nc3ccccc3)n2)CCN(CC2CCCCC2)CC1 [Example 21-9, 1-[4-(cyanomethyl)-1-(cyclohexylmethyl)piperidin-4-yl]-3-(phenylamino)-1H-pyrazole-4-carboxamide] |
| 8 nM | 78 nM | N#CCC1(n2cc(C(N)=O)c(Nc3ccccc3)n2)CCN(Cc2ccc3c(c2)OCO3)CC1 [Example 21-10, 1-[1-(1,3-benzodioxol-5-ylmethyl)-4-(cyanomethyl)piperidin-4-yl]-3-(phenylamino)-1H-pyrazole-4-carboxamide] |
| 24 nM | 297 nM | COc1ccc2cc(CN3CCC(CC#N)(n4cc(C(N)=O)c(Nc5ccccc5)n4)CC3)ccc2c1 [Example 21-13, 1-{4-(cyanomethyl)-1-[(6-methoxynaphthalen-2-yl)methyl]piperidin-4-yl}-3-(phenylamino)-1H-pyrazole-4-carboxamide] |
| 18 nM | 224 nM | N#CCC1(n2cc(C(N)=O)c(Nc3ccccc3)n2)CCN(Cc2c(Cl)cccc2Cl)CC1 [Example 21-14, 1-[4-(cyanomethyl)-1-(2,6-dichlorobenzyl)piperidin-4-yl]-3-(phenylamino)-1H-pyrazole-4-carboxamide] |
| 69 nM | 842 nM | CCOc1ccccc1CN1CCC(CC#N)(n2cc(C(N)=O)c(Nc3ccccc3)n2)CC1 [Example 21-16, 1-[4-(cyanomethyl)-1-(2-ethoxybenzyl)piperidin-4-yl]-3-(phenylamino)-1H-pyrazole-4-carboxamide] |
